Experiment [1] deals with SCC2095, MDA-MB-231 and SCM-1 cells. In words: Cell viability (MTT) assay, cancer cell lines (summary). Format: cell-based. The following applies: Homo sapiens; SCC2095, MDA-MB-231, SCM-1; read-out: IC50 of cytotoxicity, range over cancer cell lines. An excerpt:
(§1) Human breast cancer MDA-MB-231 cells and gastric cancer SCM-1 cells were purchased from the American Type Culture Collection (Manasas, VA, USA). SCC2095 human oral cancer cells were kindly provided by Professor Susan R. Mallery (The Ohio State University). Normal human lung fibroblasts (NHLFs; CC-2512) were purchased from the Lonza (Walkersville, MD, USA). SCM-1 cells were maintained in RPMI-1640 medium (Invitrogen, Carlsbad, CA, USA); MDA-MB-231 and SCC2095 cells were maintained in DMEM/F12 (Invitrogen); and NHLFs were maintained in FGM™-2 medium (Lonza) with 2% serum, supplemented with 10% heat-inactivated foetal bovine serum (FBS; Gibco, Grand Island, NY, USA). All cells were cultured at 37 °C in a humidified incubator containing 5% CO2 and 95% relative humidity.
(§2) To assess cell viability, cells were seeded in three replicates into 96-well plates at a density of 5×10^3/well for 24 h following incubation with compounds at the indicated concentrations. Then, cell viability was assessed with 3–(4,5-dimethylthiazol-2-yl)-2,5-diphenyltetrazolium bromide (MTT) solution (0.5 mg/mL) for 4h as described previously. After removing the medium, 200 µL of DMSO was added, and then the absorbance was measured at 570 nm using a plate reader (BMG LABTECH, Germany).

In experiment [2] the test system is SCC2095 cells. In words: Western blotting of caspase- and HDAC-related proteins. The format is cell-based, human. The following applies: western blot. On the procedure: The protein expression was performed as previously described. Proteins were resolved on 10% SDS-PAGE, then transferred to PVDF (Bio-Rad) membranes. After blocking with 5% skimmed milk in PBS containing 0.1% Tween 20, the membranes were probed with primary antibodies against interest target proteins at 4 °C overnight. The following primary antibodies were used: […], cleaved caspase 9, acetyl α-tubulin, Hsp90, Histone H2A.X, p38, p-^180Thr/^182Tyr p38, PPARγ, and p21 were purchased from Cell Signalling Technologies (Beverly, MA, USA); pro-caspase 8, Millipore; β-actin, Sigma-Aldrich (St. Louis, MO, USA). Then, the immunoblots were washed and exposed to HRP-conjugated secondary antibodies at room temperature for 1 h. The immunoblots were examined by enhanced chemiluminescence.
Background: In western blotting, separated proteins are transferred to a membrane and probed.

The target of the next experiment is HDAC4 (Homo sapiens, UniProt P56524). In words: HDAC inhibition assay, HDAC4.
The next experiment concerns MDA-MB-231 cells. Put plainly: Cell viability (MTT) assay, MDA-MB-231. The format is cell-based. The following applies: human breast cancer cells, read-out: IC50 of cytotoxicity MDA-MB-231.
Excerpt: as §1, §2

Experiment [3] concerns SCC2095 cells. Put plainly: ROS determination by flow cytometry (DCFH-DA probe). The format is cell-based, human. The following applies: SCC2095, 12 h or 24 h. On the procedure:
Cells (2 × 10^5) were treated with tested compounds in 6-well plates for 24 h or 48 h, then washed with ice-cold PBS twice and harvested with trypsin. Cells were incubated with 5 µL Annexin V- FITC/PI (BD Pharmingen, San Diego) for 15 min in the dark condition. Then, the cells were measured by BD FACSCanto flow cytometer (BD, Franklin Lakes, NJ). For ROS determination, DMSO or H2O2 or compound 7 g-treated cells were stained with the ROS probe (DCFH-DA; 5 µM) and detected the DCFH-DA fluorescence.
(In general: In flow cytometry, cells or beads pass a laser one at a time.)

The target in a further experiment is T1, HDAC8 (Homo sapiens, UniProt Q9BY41).
T1 sequence (Q9BY41 1-377): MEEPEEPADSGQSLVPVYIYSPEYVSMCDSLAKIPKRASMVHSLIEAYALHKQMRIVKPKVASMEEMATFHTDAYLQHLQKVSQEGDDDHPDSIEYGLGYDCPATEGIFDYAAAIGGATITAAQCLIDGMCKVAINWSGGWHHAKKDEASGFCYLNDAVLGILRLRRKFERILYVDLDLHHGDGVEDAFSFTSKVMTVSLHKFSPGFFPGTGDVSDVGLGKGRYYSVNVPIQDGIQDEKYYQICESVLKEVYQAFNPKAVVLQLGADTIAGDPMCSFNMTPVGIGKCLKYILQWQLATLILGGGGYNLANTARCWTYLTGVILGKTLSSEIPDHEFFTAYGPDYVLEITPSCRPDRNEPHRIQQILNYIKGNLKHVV
Put plainly: HDAC inhibition assay, HDAC8.

The target of a further experiment is T2, HDAC7 (Homo sapiens, UniProt Q8WUI4).
T2 sequence (Q8WUI4 1-952): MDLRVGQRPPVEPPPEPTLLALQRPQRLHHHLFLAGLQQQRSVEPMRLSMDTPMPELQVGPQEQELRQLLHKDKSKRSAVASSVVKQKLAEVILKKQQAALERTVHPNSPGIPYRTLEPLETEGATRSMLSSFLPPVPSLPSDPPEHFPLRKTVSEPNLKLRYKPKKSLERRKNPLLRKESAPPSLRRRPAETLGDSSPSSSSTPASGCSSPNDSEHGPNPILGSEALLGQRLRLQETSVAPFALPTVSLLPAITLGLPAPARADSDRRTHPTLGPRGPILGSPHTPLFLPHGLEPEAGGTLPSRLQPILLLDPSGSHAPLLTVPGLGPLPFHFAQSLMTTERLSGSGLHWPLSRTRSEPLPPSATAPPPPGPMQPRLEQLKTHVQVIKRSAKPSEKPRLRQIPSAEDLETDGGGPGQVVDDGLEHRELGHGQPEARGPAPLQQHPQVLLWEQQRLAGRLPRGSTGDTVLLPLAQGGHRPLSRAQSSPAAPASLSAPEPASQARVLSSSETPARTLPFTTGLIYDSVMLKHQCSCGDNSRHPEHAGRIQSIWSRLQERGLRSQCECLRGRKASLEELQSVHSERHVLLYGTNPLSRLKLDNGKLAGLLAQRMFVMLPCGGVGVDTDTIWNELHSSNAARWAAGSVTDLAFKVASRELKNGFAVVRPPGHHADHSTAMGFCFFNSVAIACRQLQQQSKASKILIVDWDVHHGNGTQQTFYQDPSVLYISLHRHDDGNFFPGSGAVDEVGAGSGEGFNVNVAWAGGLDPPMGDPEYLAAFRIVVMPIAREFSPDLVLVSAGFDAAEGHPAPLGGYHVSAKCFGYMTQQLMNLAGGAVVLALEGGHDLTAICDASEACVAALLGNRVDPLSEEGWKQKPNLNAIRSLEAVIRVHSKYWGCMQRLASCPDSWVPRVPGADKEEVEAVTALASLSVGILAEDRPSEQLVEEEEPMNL
In words: HDAC inhibition assay, HDAC7.

Another experiment has as its system SCM-1 cells. In words: Cell viability (MTT) assay, SCM-1. Format: cell-based. The following applies: human gastric cancer cells, read-out: IC50 of cytotoxicity SCM-1.
Excerpt: as §1, §2

In general, IC50 refers to the concentration that gives 50% inhibition.

Sequence of HDAC4 (P56524 whole entry): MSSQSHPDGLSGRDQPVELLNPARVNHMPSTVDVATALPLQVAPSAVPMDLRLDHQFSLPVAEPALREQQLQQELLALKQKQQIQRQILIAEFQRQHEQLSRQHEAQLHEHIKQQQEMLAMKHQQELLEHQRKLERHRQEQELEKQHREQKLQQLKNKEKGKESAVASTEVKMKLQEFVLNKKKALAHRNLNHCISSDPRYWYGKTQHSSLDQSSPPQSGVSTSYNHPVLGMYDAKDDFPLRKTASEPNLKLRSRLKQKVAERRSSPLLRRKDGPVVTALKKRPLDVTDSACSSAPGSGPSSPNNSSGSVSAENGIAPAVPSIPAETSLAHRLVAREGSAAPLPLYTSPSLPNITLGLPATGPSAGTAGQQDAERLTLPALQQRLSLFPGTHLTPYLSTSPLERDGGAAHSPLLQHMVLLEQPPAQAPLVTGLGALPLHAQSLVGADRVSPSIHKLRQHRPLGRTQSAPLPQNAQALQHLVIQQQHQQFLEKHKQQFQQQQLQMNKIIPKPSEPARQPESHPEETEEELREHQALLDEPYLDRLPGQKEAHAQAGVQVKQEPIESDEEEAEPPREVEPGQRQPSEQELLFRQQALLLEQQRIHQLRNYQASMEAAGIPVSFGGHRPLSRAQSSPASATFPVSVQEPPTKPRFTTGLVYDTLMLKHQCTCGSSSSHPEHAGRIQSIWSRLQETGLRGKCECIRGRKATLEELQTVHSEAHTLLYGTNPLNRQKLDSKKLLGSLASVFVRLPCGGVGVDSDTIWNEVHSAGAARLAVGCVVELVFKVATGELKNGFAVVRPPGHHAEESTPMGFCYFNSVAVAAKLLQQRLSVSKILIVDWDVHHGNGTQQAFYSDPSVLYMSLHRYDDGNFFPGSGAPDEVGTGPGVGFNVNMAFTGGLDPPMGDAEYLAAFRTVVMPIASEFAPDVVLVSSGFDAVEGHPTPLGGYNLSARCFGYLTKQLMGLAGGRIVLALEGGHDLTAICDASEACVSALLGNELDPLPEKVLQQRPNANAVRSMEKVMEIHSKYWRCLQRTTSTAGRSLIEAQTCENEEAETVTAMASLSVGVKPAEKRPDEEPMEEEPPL

`NC(=NO)c1ccc2c(c1)N(Cc1ccc(C(=O)NO)c(-c3ccccc3)c1)c1ccccc1S2` [Compound 7g, N-Hydroxy-4-[2-(N’-hydroxycarbamimidoyl)-10H-phenothiazin-10-yl]methyl-2-phenylbenzamide]: the half-inhibitory concentration (IC50) was 3000 to 8400 nM in experiment [1]; 180 ± 60 nM against HDAC4; 8400 ± 2700 nM with MDA-MB-231 cells; 1950 nM against HDAC8; 190 ± 40 nM against HDAC7; 5800 ± 300 nM in the experiment with SCM-1 cells. Also, the “levels of Hsp90” value in the experiment on SCC2095 cells [2] (SCC2095, 24 h) is “increased”. Also, the “levels of PPARγ” value in the experiment with SCC2095 cells [2] (SCC2095, 24 h) is “increased”. Further, the “levels of cleaved caspase 9” value in the experiment with SCC2095 cells [2] (SCC2095, 24 h) is “up-regulated”. Moreover, the “levels of p21” value in the experiment with SCC2095 cells [2] (SCC2095, 24 h) was “increased”. Further, the “levels of pro-caspase 8” value in the experiment on SCC2095 cells [2] (SCC2095, 24 h) is on record as “down-regulated”. Also, the “phosphorylation of Histone H2A.X” value in the experiment on SCC2095 cells [2] (SCC2095, DNA damage biomarker) is recorded as “increased”. In addition, the “phosphorylation of p38” value in the experiment on SCC2095 cells [2] (SCC2095, dose-dependent) is “up-regulated”. Besides, the ROS generation result in the experiment with SCC2095 cells [3] is reported as “increased”.

These data come from publication PMC11423540, “Synthesis and biological evaluation of ortho-phenyl phenylhydroxamic acids containing phenothiazine with improved selectivity for class IIa histone deacetylases” (Journal of Enzyme Inhibition and Medicinal Chemistry, 2024).
